According to ChEMBL document CHEMBL1155373, “Triterpene compounds isolated from Acer mandshuricum and their anti-inflammatory activity” (Bioorg Med Chem Lett, 2010):

Experiments:
SK-OV-3 = assay: Growth inhibition of human SKOV3 cells by MTT assay; assay type: functional
A549 = assay: Growth inhibition of human A549 cells by MTT assay; assay type: functional
HT-29 = assay: Growth inhibition of human HT-29 cells by MTT assay; assay type: functional
HL-60 = assay: Growth inhibition of human HL60 cells by MTT assay; assay type: functional
RAW264.7 = assay: Antiinflammatory activity in mouse RAW264.7 cells assessed as inhibition of LPS-stimulated TNFalpha production at 100 nM pretreated 1 hr before LPS challenge measured after 24 hrs by sandwich ELISA relative to control; assay type: functional
A2780 = assay: Cytotoxicity against human A2780 cells; assay type: functional, cell-based

SMILES | GI50 (SK-OV-3) | GI50 (A549) | GI50 (HT-29) | GI50 (HL-60) | inhibition at 0.1 µM (RAW264.7) | IC50 (A2780)
CC(=O)O[C@H]1CC[C@@]2(C)[C@@]3(OC[C@@H](OO3)[C@]3(C)[C@@]2(C)CC[C@@]2(C)[C@@H]4CC(C)(C)CC[C@]4(C)CC[C@]32C)C1(C)C [ACERANOL ACETATE] | 12.8 µM | 11.4 µM | 14.6 µM | 13.7 µM | 21% | 
O=C1c2c(O)ccc(O)c2C(=O)c2c(NCCNCCO)ccc(NCCNCCO)c21 [MITOXANTRONE] | 11 µM | 8.3 µM | 8.9 µM | 7.8 µM |  | 
CC[C@H](CC[C@@H](C)[C@H]1CC[C@H]2[C@@H]3CC=C4C[C@@H](O[C@@H]5O[C@H](CO)[C@@H](O)[C@H](O)[C@H]5O)CC[C@]4(C)[C@H]3CC[C@]12C)C(C)C [SITOGLUSIDE] | 29.8 µM | 35.5 µM | 46.8 µM | 50.8 µM | 29.3% | 
CC(=O)O[C@H]1CC[C@]2(C)[C@H]3CC=C4[C@@H]5CC(C)(C)CC[C@]5(C)CC[C@@]4(C)[C@]3(C)CC[C@H]2C1(C)C [beta-AMYRIN ACETATE] | 14.6 µM | 11.4 µM | 12.5 µM | 14.6 µM | 38.4% | 12.5 µg/mL

More lines, main results first:

GI50 (SK-OV-3) | GI50 (A549) | GI50 (HT-29) | GI50 (HL-60) | SMILES | inhibition at 0.1 µM (RAW264.7) | IC50 (A2780)
12.7 µM | 11.1 µM | 13.5 µM | 12.2 µM | C[C@H]1C(=O)CC[C@@H]2[C@]1(C)CC[C@H]1[C@@]2(C)CC[C@@]2(C)[C@@H]3CC(C)(C)CC[C@]3(C)CC[C@]12C [FRIEDELINE] | 23.5% | 
12.1 µM | 17.9 µM | 16.3 µM | 16.2 µM | CC(=O)O[C@H]1CC[C@@H]2C(=CC[C@H]3[C@@]2(C)CC[C@@]2(C)[C@@H]4CC(C)(C)CC[C@]4(C)CC[C@]32C)C1(C)C [GLUTINOL ACETATE] | 25.4% | 
12.6 µM | 11.6 µM | 14.1 µM | 16 µM | CC1(C)CC[C@]2(C)CC[C@]3(C)[C@H]4CC=C5[C@@H](CC[C@H](O)C5(C)C)[C@]4(C)CC[C@@]3(C)[C@@H]2C1 [GLUTINOL] | 16.9% | 
